Patent US7994183B2, “Solid preparation comprising 2-[[6-[(3R)-3-amino-1-piperidinyl]-3,4-dihydro-3-methyl-2,4-dioxo-1(2H)-pyrimidinyl]methyl]-4-fluorobenzonitrile” (Takeda Pharmaceutical Company Limited, priority 2007, dated 2011)

Test: storage stability of compound (A) succinate alone or mixed with additive; amount of analogs by HPLC (Experimental Example 1A)
Assay type: physicochemical
Protocol: Comparative Examples 1A, 2A and 3A were preserved in a glass bottle with an opened cap at 40° C., 75% RH for 2 weeks, and the amount of analogs due to decomposition of compound (A) was measured, based on which the storage stability was evaluated.
The amounts of the analogs were measured by high performance liquid chromatography (HPLC) under the conditions of Table 11A. As a result, an analogue that specifically increases at relative retention time (RRT) of about 1.65 was observed.

Cn1c(=O)cc(N2CCC[C@@H](N)C2)n(Cc2cc(F)ccc2C#N)c1=O [compound (A), 2-[[6-[(3R)-3-amino-1-piperidinyl]-3,4-dihydro-3-methyl-2,4-dioxo-1(2H)-pyrimidinyl]methyl]-4-fluorobenzonitrile]
total amount of analogs (%) (40° C./75% RH 2 wk (with opened cap), glass bottle): 0.30% | total amount of analogs (%) (initial): 0.30%
